pIC50: −log10 of the molar value. “Also recorded” adds a separate entry of the source. Where a name gives a salt, the structure may show the parent alone. Read-outs that look alike come from different tables or passages of the source. A value given as a limit tells only on which side of the number the result lay.

The target in data set [1] is Chk-1 kinase (Homo sapiens (Human), UniProt O14757). The data set can be described thus: Chk-1 kinase inhibiting activity (33P-ATP filter assay, CHKtide substrate). In kind it is biochemical. As to the method:
The compounds of the invention were tested for activity against Chk-1 kinase using the materials and protocols set out below.
Base Reaction buffer: 20 mM Hepes (pH 7.5), 10 mM MgCl2, 1 mM EGTA, 0.02% Brij35, 0.02 mg/ml BSA, 0.1 mM Na3VO4, 2 mM DTT, 1% DMSO
*Required cofactors are added individually to each kinase reaction
(i) Prepare indicated substrate in freshly prepared Base Reaction Buffer
(ii) Deliver any required cofactors to the substrate solution above
(iii) Deliver indicated kinase into the substrate solution and gently mix
(iv) Deliver compounds in DMSO into the kinase reaction mixture
(v) Deliver ^33P-ATP (specific activity 0.01 μCi/μl final) into the reaction mixture to initiate the reaction.
(vi) Incubate kinase reaction for 120 minutes at room temperature
(vii) Reactions are spotted onto P81 ion exchange paper (Whatman #3698-915)
(viii) Wash filters extensively in 0.1% phosphoric acid.
(ix) Dry filters and measure counts in scintillation counter
Recombinant full length construct, N-terminal GST tagged, purified from insect cells.
No special measures were taken to activate this kinase.
Final concentration in assay=0.5 nM
Peptide sequence: [[…]]
Final concentration in assay=20 μM
No additional cofactors are added to the reaction mixture

For data set [2], the system named is HT29 cells. The data set can be described thus: Sensitisation of HT29 cells to SN38 (Alamar blue cell growth). In kind it is cell-based, human. The following applies: for fold shift in the IC50 value of SN38: HT29 cells; for Cell potentiation factor: SN38 sensitisation assay in HT-29 cells. As to the method:
Studies were carried out to test the sensitising effect of compounds of the invention on the ability of the DNA damaging compound 7-ethyl-10-hydroxycamptothecin (SN38), an active metabolite of the anti-cancer drug irinotecan, to inhibit cell growth in HT29 cells.
The following protocol was used:
(a) HT29 cells were seeded in 96-well plates at a concentration of 3000 cells per well and allowed to adhere overnight prior to addition of compound or vehicle control.
(b) SN38 was prepared from a 10 mM DMSO stock to give a final concentration range of 1 μM, 300 nM, 100 nM, 30 nM, 10 nM, 3 nM, 1 nM, and vehicle control.
(c) Test compounds were prepared from 10 mM DMSO stocks to typically give a final concentration range of 3 μM, 1 μM, 0.3 μM. 0.1 μM, 0.03 μM and vehicle control. The final DMSO content was 0.4%.
(d) Test compounds were incubated with the cells for 72 h at 37° C. 5% CO2 in a humidified atmosphere.
(e) Alamar blue 10% (v/v) was then added and incubated for a further 6 h, and fluorescent product detected using the BMG FLUOstar plate reader.
(f) Data were analysed using a 4-parameter logistic equation in GraphPad Prism.
Sensitisation is determined by the enhancement in IC50 of SN38 by the addition of the Chk-1 kinase inhibitor. In the protocol described above, the IC50 for SN-38 is determined the presence of varying doses of the Chk-1 inhibitor. The fold shift represents a decrease in IC50 for SN-38 at a dose of Chk-1 inhibitor that has no effect by itself.
(The colour change of resazurin is a common sign of viable cells or microbes.)

Where [3] appears, read: Chk-1 kinase, Table 3, read-out: IC50.
Setting [4] is: comparative tests, Example 70, read-out: Chk-1 IC50.
Where [5] appears, read: ranges given, read-out: IC50 values against Chk-1 kinase.

Sequence of Chk-1 kinase (O14757 whole entry): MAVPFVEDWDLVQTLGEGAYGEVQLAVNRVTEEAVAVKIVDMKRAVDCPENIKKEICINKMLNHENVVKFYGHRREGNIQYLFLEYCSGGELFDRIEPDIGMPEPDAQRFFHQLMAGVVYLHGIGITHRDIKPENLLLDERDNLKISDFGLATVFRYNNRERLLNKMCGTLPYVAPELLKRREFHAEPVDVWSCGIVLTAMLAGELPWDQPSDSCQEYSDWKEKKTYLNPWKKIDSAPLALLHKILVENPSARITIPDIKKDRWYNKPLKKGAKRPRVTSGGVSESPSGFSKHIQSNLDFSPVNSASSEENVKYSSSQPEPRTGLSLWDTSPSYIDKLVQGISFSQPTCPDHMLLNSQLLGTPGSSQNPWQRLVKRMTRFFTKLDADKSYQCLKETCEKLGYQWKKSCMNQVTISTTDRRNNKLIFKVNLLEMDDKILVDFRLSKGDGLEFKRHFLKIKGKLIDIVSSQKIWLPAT

Regarding `N#Cc1cnc(NC(=O)Nc2ccc(CCNCc3ccccc3)cc2)cn1` [Example 1, 1-[4-(2-Benzylamino-ethyl)-phenyl]-3-(5-cyano-pyrazin-2-yl)-urea], the pIC50 in data set [1] (setting [3]) is 6.70; in data set [1] (setting [4]), 7.00; in data set [1] (setting [5]), 6.00 to 7.00. The “fold improvement in potency against Chk-1 enzyme” value in data set [1] (relative to Example 30 (alkylene chain 1 to 2 carbon atoms)) was approximately 3 fold. The “fold shift in the IC50 value of SN38” value in data set [2] (test compound at 3 μM) is recorded as “three”. In data set [2] (compound at 3 μM), the Cell potentiation factor is 4 fold.

Turning to `N#Cc1cnc(NC(=O)Nc2ccc(OCCNCc3ccc(F)cc3F)c(Cl)c2)cn1` [Example 6, 1-{3-Chloro-4-[2-(2,4-difluoro-benzylamino)-ethoxy]-phenyl}-3-(5-cyano-pyrazin-2-yl)-urea], the figures for the pIC50 in data set [1] (setting [3]) and in data set [1] (setting [5]) were 7.59 and 7.00 to 8.00, respectively. Further, the “fold shift in the IC50 value of SN38” value in data set [2] (test compound at 3 μM) is “three”.

For the compound `N#Cc1cnc(NC(=O)Nc2ccc(CCNCc3ccc(F)cc3F)cc2)cn1` [Example 3, 1-(5-Cyano-pyrazin-2-yl)-3-{4-[2-(2,4-difluoro-benzylamino)-ethyl]-phenyl}-urea], the pIC50 was 6.75 in data set [1] (setting [3]) and 6.00 to 7.00 in data set [1] (setting [5]). The “fold shift in the IC50 value of SN38” value in data set [2] (test compound at 3 μM) is recorded as “three”.

In the case of `COc1cccc(CNCCc2ccc(NC(=O)Nc3cnc(C#N)cn3)cc2Cl)c1` [Example 12, 1-{3-Chloro-4-[2-(3-methoxy-benzylamino)-ethyl]-phenyl}-3-(5-cyano-pyrazin-2-yl)-urea], the pIC50 in data set [1] (setting [3]) was 7.96; in data set [1] (setting [5]) it was 7.00 to 8.00. Besides, in data set [2] (test compound at 3 μM), the “fold shift in the IC50 value of SN38” value was “three; also recorded: greater than ten”.

On to `N#Cc1cnc(NC(=O)Nc2ccc(CCNCc3ccc(Cl)cc3)c(Cl)c2)cn1` [Example 8, 1-{3-Chloro-4-[2-(4-chloro-benzylamino)-ethyl]-phenyl}-3-(5-cyano-pyrazin-2-yl)-urea], for which the pIC50 is 7.96 in data set [1] (setting [3]) and 7.00 to 8.00 in data set [1] (setting [5]). Also, in data set [2] (test compound at 3 μM), the “fold shift in the IC50 value of SN38” value is “three; also recorded: greater than ten”.

On to `N#Cc1cnc(NC(=O)Nc2ccc(CCNCc3ccc(F)cc3)cc2)cn1` [Example 2, 1-(5-Cyano-pyrazin-2-yl)-3-{4-[2-(4-fluoro-benzylamino)-ethyl]-phenyl}-urea], for which the pIC50 is 7.36 in data set [1] (setting [3]) and 7.00 to 8.00 in data set [1] (setting [5]). Further, the “fold shift in the IC50 value of SN38” value in data set [2] (test compound at 3 μM) is reported as “three”.

For `N#Cc1cnc(NC(=O)Nc2ccc(OCCNCc3ccc(F)cc3)c(Cl)c2)cn1` [Example 26, 1-{3-Chloro-4-[2-(4-fluoro-benzylamino)-ethoxy]-phenyl}-3-(5-cyano-pyrazin-2-yl)-urea], the figures for the pIC50 in data set [1] (setting [3]) and in data set [1] (setting [5]) were 7.68 and 7.00 to 8.00, respectively. For the same compound, in data set [2] (test compound at 3 μM), the “fold shift in the IC50 value of SN38” value is “three”.

As for `N#Cc1cnc(NC(=O)Nc2ccc(CCNCc3cccc(Cl)c3)c(Cl)c2)cn1` [Example 13, 1-{3-Chloro-4-[2-(3-chloro-benzylamino)-ethyl]-phenyl}-3-(5-cyano-pyrazin-2-yl)-urea hydrochloride], the pIC50 in data set [1] (setting [3]) is 7.43; in data set [1] (setting [5]) it was 7.00 to 8.00. Moreover, the “fold shift in the IC50 value of SN38” value in data set [2] (test compound at 1 μM) is listed as “two”.

Consider `COc1ccc(CNCc2ccc(NC(=O)Nc3cnc(C#N)cn3)c(OC)c2)cc1` [Example 60, 1-(5-Cyano-pyrazin-2-yl)-3-{2-methoxy-4-[(4-methoxy-benzylamino)-methyl]-phenyl}-urea], for which the results for the pIC50 in data set [1] (setting [3]) and in data set [1] (setting [5]) were 8.80 and more than 8.00, respectively. Also, in data set [2] (test compound at 3 μM), the “fold shift in the IC50 value of SN38” value was “three; also recorded: greater than ten”.

With `COc1cc(CCNCCc2ccc(F)cc2)ccc1NC(=O)Nc1cnc(C#N)cn1` [Example 31, 1-(5-Cyano-pyrazin-2-yl)-3-(4-{2-[2-(4-fluoro-phenyl)-ethylamino]-ethyl}-2-methoxy-phenyl)-urea], the pIC50 is 8.57 in data set [1] (setting [3]) and more than 8.00 in data set [1] (setting [5]). In data set [2] (test compound at 3 μM), the “fold shift in the IC50 value of SN38” value is “three”.

Take `COc1ccc(CNCCc2ccc(NC(=O)Nc3cnc(C#N)cn3)cc2Cl)cc1` [Example 15, 1-{3-Chloro-4-[2-(4-methoxy-benzylamino)-ethyl]-phenyl}-3-(5-cyano-pyrazin-2-yl)-urea]: the pIC50 in data set [1] (setting [3]) was 8.46; in data set [1] (setting [5]) it was more than 8.00. Further, the “fold shift in the IC50 value of SN38” value in data set [2] (test compound at 3 μM) is given as “three; also recorded: greater than ten”.

As for `CN(CCc1ccc(NC(=O)Nc2cnc(C#N)cn2)cc1Cl)Cc1ccc(F)cc1` [Example 11, 1-(3-Chloro-4-{2-[(4-fluoro-benzyl)-methyl-amino]-ethyl}-phenyl)-3-(5-cyano-pyrazin-2-yl)-urea], the pIC50 was 6.84 in data set [1] (setting [3]) and 6.00 to 7.00 in data set [1] (setting [5]). In addition, in data set [2] (test compound at 3 μM), the “fold shift in the IC50 value of SN38” value is recorded as “three”.

In the case of `COc1cc(CCNCc2ccc(F)cc2)c(Br)cc1NC(=O)Nc1cnc(C#N)cn1` [Example 42, 1-{5-Bromo-4-[2-(4-fluoro-benzylamino)-ethyl]-2-methoxy-phenyl}-3-(5-cyano-pyrazin-2-yl)-urea hydrochloride], the negative-log IC50 (pIC50) in data set [1] (setting [3]) is 9.35; in data set [1] (setting [5]) it was more than 8.00. Also, the “fold shift in the IC50 value of SN38” value in data set [2] (test compound at 1 μM) is listed as “two”; in data set [2] (test compound at 3 μM) it was “greater than ten”.

Turning to `COc1cc(CNCc2ccccc2)ccc1NC(=O)Nc1cnc(C)cn1` [Compound 338, reference compound], the pIC50 in data set [1] (setting [4]) was 7.00. Also, in data set [2] (compound at 3 μM), the Cell potentiation factor was determined as 5 fold.

On to `N#Cc1cnc(NC(=O)Nc2ccc(CCNCc3ccc(C(F)(F)F)cc3)c(Cl)c2)cn1` [Example 17, 1-{3-Chloro-4-[2-(4-trifluoromethyl-benzylamino)-ethyl]-phenyl}-3-(5-cyano-pyrazin-2-yl)-urea hydrochloride], for which the pIC50 was 7.11 in data set [1] (setting [3]) and 7.00 to 8.00 in data set [1] (setting [5]). For the same compound, the “fold shift in the IC50 value of SN38” value in data set [2] (test compound at 1 μM) was “two”.

Consider `COc1cc(CCNCc2cccc(F)c2)c(Cl)cc1NC(=O)Nc1cnc(C#N)cn1` [Example 19, 1-{5-Chloro-4-[2-(3-fluoro-benzylamino)-ethyl]-2-methoxy-phenyl}-3-(5-cyano-pyrazin-2-yl)-urea hydrochloride], for which the pIC50 in data set [1] (setting [3]) is 8.92; in data set [1] (setting [4]), 8.10; in data set [1] (setting [5]), more than 8.00. Besides, the Cell potentiation factor in data set [2] (compound at 3 μM) came out at 50 fold.

Take `N#Cc1cnc(NC(=O)Nc2ccc(CCNCc3cccc(F)c3)c(Cl)c2)cn1` [Example 9, 1-{3-Chloro-4-[2-(3-fluoro-benzylamino)-ethyl]-phenyl}-3-(5-cyano-pyrazin-2-yl)-urea]: the negative-log IC50 (pIC50) is 8.70 in data set [1] (setting [3]) and more than 8.00 in data set [1] (setting [5]). In addition, the “fold shift in the IC50 value of SN38” value in data set [2] (test compound at 3 μM) is reported as “three; also recorded: greater than ten”.

Take `N#Cc1cnc(NC(=O)Nc2ccc(CCNCc3ccccc3F)c(Cl)c2)cn1` [Example 23, 1-{3-Chloro-4-[2-(2-fluoro-benzylamino)-ethyl]-phenyl}-3-(5-cyano-pyrazin-2-yl)-urea]: the negative logarithm of the IC50 (pIC50) was 7.96 in data set [1] (setting [3]) and 7.00 to 8.00 in data set [1] (setting [5]). Also, the “fold shift in the IC50 value of SN38” value in data set [2] (test compound at 3 μM) is “three; also recorded: greater than ten”.

For `N#Cc1cnc(NC(=O)Nc2ccc(CNCc3ccccc3)cc2)cn1` [Example 29, 1-[4-(Benzylamino-methyl)-phenyl]-3-(5-cyano-pyrazin-2-yl)-urea], the negative logarithm of the IC50 (pIC50) in data set [1] (setting [3]) was 6.49; in data set [1] (setting [5]), 6.00 to 7.00. Moreover, the “fold shift in the IC50 value of SN38” value in data set [2] (test compound at 10 μM) is reported as “four”. Also, the Cell potentiation factor in data set [2] (compound at 10 μM) is 4 fold.

For the compound `N#Cc1cnc(NC(=O)Nc2ccc(CCNCc3ccc(OC(F)(F)F)cc3)c(Cl)c2)cn1` [Example 14, 1-{3-Chloro-4-[2-(4-trifluoromethoxy-benzylamino)-ethyl]-phenyl}-3-(5-cyano-pyrazin-2-yl)-urea], the pIC50 is 7.17 in data set [1] (setting [3]) and 7.00 to 8.00 in data set [1] (setting [5]). The “fold shift in the IC50 value of SN38” value in data set [2] (test compound at 3 μM) was “three”.

Take `N#Cc1cnc(NC(=O)Nc2ccc(CCNCc3ccccc3Cl)c(Cl)c2)cn1` [Example 10, 1-{3-Chloro-4-[2-(2-chloro-benzylamino)-ethyl]-phenyl}-3-(5-cyano-pyrazin-2-yl)-urea]: the pIC50 was 7.21 in data set [1] (setting [3]) and 7.00 to 8.00 in data set [1] (setting [5]). Moreover, in data set [2] (test compound at 3 μM), the “fold shift in the IC50 value of SN38” value was “three”.

Usually pIC50 stands for the IC50 on a negative log10 scale, so that one unit is a factor of ten.
